Measurements reported in publication PMC12030706, “Novel ^177Lu-Labeled [Thz^14]Bombesin(6–14) Derivatives with Low Pancreas Accumulation for Targeting Gastrin-Releasing Peptide Receptor-Expressing Cancer” (Pharmaceuticals, 2025).

Tests used:
[1] = test system: PC-3 tumor-bearing NRG mouse; experiment: Longitudinal SPECT/CT imaging in PC-3 tumor-bearing mice; type: in vivo, mice (NRG); conditions: SPECT/CT images
Method: The PC-3 tumor-bearing mice were sedated (2.5% isoflurane in O2) and injected with ^177Lu-labeled ligands (15–32 MBq) through a lateral caudal tail vein. […] At each time point, a 5 min CT scan was obtained using 615 μA and 60 kV parameters for localization and attenuation, followed by 2 × 30 min static SPECT scans acquired in list mode with an energy window centered around 208 keV. The MILabs U-SPECT II reconstruction software (version 8.00) was used to reconstruct data, and the images were decay corrected to the time of injection with PMOD v 3.402 (PMOD Technologies GmbH, Fallanden, Switzerland).

[2] = LogD7.4 measurement, shake flask method; type: physicochemical; conditions: n-octanol/DPBS pH 7.4, n = 3
Method: The logD7.4 values of all the ^177Lu-labeled GRPR-targeted ligands were measured using the shake flask method as previously reported. An aliquot (~2 MBq) of the radiolabeled product was added to a mixture of n-octanol (3 mL) and DPBS (3 mL, pH 7.4), followed by 1 min vortexing and 15 min centrifugation at 5000 rpm. Samples of the n-octanol (1 mL) and buffer (1 mL) layers were collected, and the activity was counted using a gamma counter. The logD7.4 values were calculated using the following equation: logD7.4=log10[countsn−octanolphase/countsbutterphase]

PC-3 tumor-bearing mice = experiment: Ex vivo biodistribution in PC-3 tumor-bearing mice
Method: (§1) SPECT/CT imaging experiments were performed using an MILabs (Houten, The Netherlands) U-SPECT-II/CT scanner with a custom-made ultra-high-sensitivity big mouse collimator (2 mm pinhole size) following previously reported procedures. […] Male NOD.Cg-Rag1^tm1Mom Il2rg^tm1Wjl/SzJ (NRG) mice were used in these experiments because of their immunodeficient characteristics and excellent radiation tolerance. Mice were anaesthetized and subcutaneously implanted with 5 × 10^6 PC-3 prostate cancer cells (100 µL; 1:1 PBS/Matrigel) behind the left shoulder. SPECT/CT imaging and biodistribution studies were performed once the tumors reached a diameter of 5–8 mm, typically after approximately 4 weeks of growth.
(§2) For ex vivo biodistribution studies, the mice were injected with ~2–6 MBq of the radioligand. […] Blocking study was conducted at 1 h post-injection via co-injection of the radioligand with 100 μg of [D-Phe^6,Leu-NHEt^13,des-Met^14]Bombesin(6–14). Organs/tissues of interested were collected, weighed, and measured using an automatic gamma counter.

[3] = Ex vivo biodistribution in PC-3 tumor-bearing mice; conditions: mouse; for tissue uptake at 4 h: 4 h post-injection; for tissue uptake at 24 h: 24 h post-injection; for tissue uptake at 72 h: 72 h post-injection; for tissue uptake at 120 h: 120 h post-injection
Method: as §1, §2

[4] = 1 h post-injection, 100 µg [D-Phe6,Leu-NHEt13,des-Met14]Bombesin(6–14)
[5] = PC-3 tumor, Uptake in PC-3 tumor
[6] = adrenal glands, Uptake in adrenal glands
[7] = large intestine, Uptake in large intestine
[8] = small intestine, Uptake in small intestine

## CC(C)C[C@@H](CN1CSC[C@H]1C(N)=O)NC(=O)[C@H](Cc1cnc[nH]1)NC(=O)CN(C)C(=O)[C@@H](NC(=O)[C@H](C)NC(=O)[C@H](Cc1c[nH]c2ccccc12)NC(=O)[C@H](CCC(N)=O)NC(=O)[C@@H](Cc1ccccc1)NC(=O)CN1CCC(NC(=O)CN2CCN(CC(=O)O)CCN(CC(=O)O)CCN(CC(=O)O)CC2)CC1)C(C)C [[^177Lu]Lu-TacsBOMB5, metal not drawn]
[1]
  excretion pathway: excreted mainly via the renal pathway
[2]
  logD: -2.53 ± 0.2
PC-3 tumor-bearing mice; [4]
  reduction of average pancreas uptake by co-injection of blocker: 45%
  reduction of average tumor uptake by co-injection of blocker: 71%
PC-3 tumor-bearing mice; relative to 1 h uptake
  uptake in PC-3 tumor xenografts cleared within 24 h: Approximately 80%
[3]; PC-3 tumor, 100 ug, Uptake in PC-3 tumor, 1 h blocked (co-injected with 100 µg [D-Phe6,Leu-NHEt13,des-Met14]Bombesin(6-14))
  tissue uptake at 1 h: 2.53 ± 0.34 %ID/g
[3]; PC-3 tumor, Uptake in PC-3 tumor, 1 h post-injection
  tissue uptake at 1 h: 8.71 ± 0.53 %ID/g
[3]; [5]
  tissue uptake at 4 h: 4.8 ± 0.32 %ID/g
  tissue uptake at 24 h: 1.77 ± 0.27 %ID/g
  tissue uptake at 72 h: 1.09 ± 0.19 %ID/g
  tissue uptake at 120 h: < 1 %ID/g
[3]; adrenal glands, 100 ug, Uptake in adrenal glands, 1 h blocked (co-injected with 100 µg [D-Phe6,Leu-NHEt13,des-Met14]Bombesin(6-14))
  tissue uptake at 1 h: 0.17 ± 0.04 %ID/g
[3]; adrenal glands, Uptake in adrenal glands, 1 h post-injection
  tissue uptake at 1 h: 0.61 ± 0.28 %ID/g
[3]; [6]
  tissue uptake at 4 h: 0.29 ± 0.07 %ID/g
  tissue uptake at 24 h: 0.17 ± 0.02 %ID/g
  tissue uptake at 72 h: 0.18 ± 0.12 %ID/g
  tissue uptake at 120 h: 0.12 ± 0.08 %ID/g
[3]; blood, 100 ug, Uptake in blood, 1 h blocked (co-injected with 100 µg [D-Phe6,Leu-NHEt13,des-Met14]Bombesin(6-14))
  tissue uptake at 1 h: 0.45 ± 0.11 %ID/g
[3]; blood, Uptake in blood, 1 h post-injection
  tissue uptake at 1 h: 1.77 ± 0.14 %ID/g
[3]; blood, Uptake in blood
  tissue uptake at 24 h: 0.21 ± 0.02 %ID/g
  tissue uptake at 72 h: 0.07 ± 0.01 %ID/g
[3]; bone, 100 ug, Uptake in bone, 1 h blocked (co-injected with 100 µg [D-Phe6,Leu-NHEt13,des-Met14]Bombesin(6-14))
  tissue uptake at 1 h: 0.06 ± 0.03 %ID/g
[3]; bone, Uptake in bone, 1 h post-injection
  tissue uptake at 1 h: 0.12 ± 0.02 %ID/g
[3]; bone, Uptake in bone
  tissue uptake at 4 h: 0.09 ± 0.03 %ID/g
  tissue uptake at 24 h: 0.07 ± 0.02 %ID/g
  tissue uptake at 72 h: 0.07 ± 0.01 %ID/g
  tissue uptake at 120 h: 0.07 ± 0.01 %ID/g
[3]; brain, 100 ug, Uptake in brain, 1 h blocked (co-injected with 100 µg [D-Phe6,Leu-NHEt13,des-Met14]Bombesin(6-14))
  tissue uptake at 1 h: 0.02 %ID/g
[3]; brain, Uptake in brain, 1 h post-injection
  tissue uptake at 1 h: 0.04 %ID/g
[3]; brain, Uptake in brain
  tissue uptake at 4 h: 0.02 %ID/g
[3]; fat, 100 ug, Uptake in fat, 1 h blocked (co-injected with 100 µg [D-Phe6,Leu-NHEt13,des-Met14]Bombesin(6-14))
  tissue uptake at 1 h: 0.06 ± 0.01 %ID/g
[3]; fat, Uptake in fat, 1 h post-injection
  tissue uptake at 1 h: 0.15 ± 0.04 %ID/g
[3]; fat, Uptake in fat
  tissue uptake at 4 h: 0.06 ± 0.01 %ID/g
  tissue uptake at 72 h: 0.02 ± 0.01 %ID/g
  tissue uptake at 120 h: 0.01 ± 0.01 %ID/g
[3]; heart, 100 ug, Uptake in heart, 1 h blocked (co-injected with 100 µg [D-Phe6,Leu-NHEt13,des-Met14]Bombesin(6-14))
  tissue uptake at 1 h: 0.15 ± 0.02 %ID/g
[3]; heart, Uptake in heart, 1 h post-injection
  tissue uptake at 1 h: 0.45 ± 0.06 %ID/g
[3]; heart, Uptake in heart
  tissue uptake at 4 h: 0.21 ± 0.03 %ID/g
  tissue uptake at 24 h: 0.09 ± 0.01 %ID/g
  tissue uptake at 72 h: 0.05 ± 0.01 %ID/g
  tissue uptake at 120 h: 0.04 ± 0.01 %ID/g
[3]; in vivo, Uptake in blood
  tissue uptake at 4 h: 0.85 ± 0.03 %ID/g
[3]; in vivo, Uptake in pancreas
  tissue uptake at 24 h: 0.08 ± 0.02 %ID/g
[3]; in vivo, Uptake in testes
  tissue uptake at 72 h: 0.08 ± 0.04 %ID/g
  tissue uptake at 120 h: 0.08 ± 0.02 %ID/g
[3]; kidneys, 100 ug, Uptake in kidneys, 1 h blocked (co-injected with 100 µg [D-Phe6,Leu-NHEt13,des-Met14]Bombesin(6-14))
  tissue uptake at 1 h: 2.78 ± 0.51 %ID/g
[3]; kidneys, Uptake in kidneys, 1 h post-injection
  tissue uptake at 1 h: 3.47 ± 0.29 %ID/g
[3]; kidneys, Uptake in kidneys
  tissue uptake at 4 h: 3.1 ± 0.35 %ID/g
  tissue uptake at 24 h: 1.38 ± 0.18 %ID/g
  tissue uptake at 72 h: 0.6 ± 0.07 %ID/g
  tissue uptake at 120 h: 0.39 ± 0.11 %ID/g
[3]; large intestine, 100 ug, Uptake in large intestine, 1 h blocked (co-injected with 100 µg [D-Phe6,Leu-NHEt13,des-Met14]Bombesin(6-14))
  tissue uptake at 1 h: 0.13 ± 0.04 %ID/g
[3]; large intestine, Uptake in large intestine, 1 h post-injection
  tissue uptake at 1 h: 0.31 ± 0.09 %ID/g
[3]; [7]
  tissue uptake at 4 h: 0.42 ± 0.09 %ID/g
  tissue uptake at 24 h: 0.42 ± 0.25 %ID/g
[3]; liver, 100 ug, Uptake in liver, 1 h blocked (co-injected with 100 µg [D-Phe6,Leu-NHEt13,des-Met14]Bombesin(6-14))
  tissue uptake at 1 h: 0.29 ± 0.05 %ID/g
[3]; liver, Uptake in liver, 1 h post-injection
  tissue uptake at 1 h: 0.67 ± 0.07 %ID/g
[3]; liver, Uptake in liver
  tissue uptake at 4 h: 0.54 ± 0.04 %ID/g
  tissue uptake at 24 h: 0.29 ± 0.02 %ID/g
  tissue uptake at 120 h: 0.16 ± 0.07 %ID/g
[3]; lungs, 100 ug, Uptake in lungs, 1 h blocked (co-injected with 100 µg [D-Phe6,Leu-NHEt13,des-Met14]Bombesin(6-14))
  tissue uptake at 1 h: 0.37 ± 0.04 %ID/g
[3]; lungs, Uptake in lungs, 1 h post-injection
  tissue uptake at 1 h: 2.2 ± 0.93 %ID/g
[3]; lungs, Uptake in lungs
  tissue uptake at 4 h: 1.45 ± 0.34 %ID/g
  tissue uptake at 24 h: 0.25 ± 0.03 %ID/g
  tissue uptake at 72 h: 0.13 ± 0.01 %ID/g
  tissue uptake at 120 h: 0.07 ± 0.03 %ID/g
[3]; muscle, 100 ug, Uptake in muscle, 1 h blocked (co-injected with 100 µg [D-Phe6,Leu-NHEt13,des-Met14]Bombesin(6-14))
  tissue uptake at 1 h: 0.13 ± 0.03 %ID/g
[3]; muscle, Uptake in muscle, 1 h post-injection
  tissue uptake at 1 h: 0.22 ± 0.01 %ID/g
[3]; muscle, Uptake in muscle
  tissue uptake at 72 h: 0.02 %ID/g
  tissue uptake at 120 h: 0.01 %ID/g
[3]; pancreas, 100 ug, Uptake in pancreas, 1 h blocked (co-injected with 100 µg [D-Phe6,Leu-NHEt13,des-Met14]Bombesin(6-14))
  tissue uptake at 1 h: 0.59 ± 0.11 %ID/g
[3]; pancreas, Uptake in pancreas, 1 h post-injection
  tissue uptake at 1 h: 1.08 ± 0.22 %ID/g
[3]; pancreas, Uptake in pancreas
  tissue uptake at 4 h: 0.21 ± 0.01 %ID/g
  tissue uptake at 72 h: 0.04 ± 0.01 %ID/g
  tissue uptake at 120 h: 0.02 %ID/g
[3]; small intestine, 100 ug, Uptake in small intestine, 1 h blocked (co-injected with 100 µg [D-Phe6,Leu-NHEt13,des-Met14]Bombesin(6-14))
  tissue uptake at 1 h: 0.26 ± 0.04 %ID/g
[3]; small intestine, Uptake in small intestine, 1 h post-injection
  tissue uptake at 1 h: 0.6 ± 0.16 %ID/g
[3]; [8]
  tissue uptake at 4 h: 0.19 ± 0.05 %ID/g
  tissue uptake at 24 h: 0.09 ± 0.03 %ID/g
  tissue uptake at 120 h: 0.02 %ID/g
[3]; spleen, 100 ug, Uptake in spleen, 1 h blocked (co-injected with 100 µg [D-Phe6,Leu-NHEt13,des-Met14]Bombesin(6-14))
  tissue uptake at 1 h: 0.15 ± 0.02 %ID/g
[3]; spleen, Uptake in spleen, 1 h post-injection
  tissue uptake at 1 h: 0.31 ± 0.03 %ID/g
[3]; spleen, Uptake in spleen
  tissue uptake at 24 h: 0.16 ± 0.03 %ID/g
  tissue uptake at 72 h: 0.18 ± 0.05 %ID/g
  tissue uptake at 120 h: 0.14 ± 0.06 %ID/g
[3]; stomach, 100 ug, Uptake in stomach, 1 h blocked (co-injected with 100 µg [D-Phe6,Leu-NHEt13,des-Met14]Bombesin(6-14))
  tissue uptake at 1 h: 0.06 ± 0.01 %ID/g
[3]; stomach, Uptake in stomach
  tissue uptake at 24 h: 0.27 ± 0.16 %ID/g
  tissue uptake at 120 h: 0.02 ± 0.02 %ID/g
[3]; testes, 100 ug, Uptake in testes, 1 h blocked (co-injected with 100 µg [D-Phe6,Leu-NHEt13,des-Met14]Bombesin(6-14))
  tissue uptake at 1 h: 0.18 ± 0.02 %ID/g
[3]; testes, Uptake in testes, 1 h post-injection
  tissue uptake at 1 h: 0.45 ± 0.11 %ID/g
[3]; testes, Uptake in testes
  tissue uptake at 24 h: 0.12 ± 0.02 %ID/g
